Reference: PubChem BioAssay AID1963842 (Molecular Pharmacology Branch, DTP, NCI, 2024)

System: 677734-321-R-J1-PDC complex spheroid viability
Assay: Anticancer human tumor 677734-321-R-J1-PDC patient-derived soft tissue sarcoma cell line growth inhibition [POLQ]
Conditions: for IC50: curve of first compound; for viability, T/C: stronger effect = lower value
Procedure, shortened: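 Growth inhibition in 3D: complex spheroids (tumor PDC, HUVEC, MSC) treated with POLQ inhibitor combinations; where Cmax unknown, highest tested concentration 10 microM, except SN-38 at 1 microM.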

[1] = second compound 0.0316 µM, first compound 0.0316 µM
[2] = second compound 0.0316 µM, first compound 0.1 µM
[3] = second compound 0.0316 µM, first compound 0.316 µM
[4] = second compound 0.0316 µM, first compound 1 µM
[5] = second compound 0.0316 µM, first compound 3.16 µM
[6] = second compound 0.0316 µM, first compound 10 µM
[7] = second compound 0.1 µM, first compound 0.0316 µM
[8] = second compound 0.1 µM, first compound 0.1 µM
[9] = second compound 0.1 µM, first compound 0.316 µM
[10] = second compound 0.1 µM, first compound 1 µM
[11] = second compound 0.1 µM, first compound 3.16 µM
[12] = second compound 0.1 µM, first compound 10 µM
[13] = second compound 0.316 µM, first compound 0.0316 µM
[14] = second compound 0.316 µM, first compound 0.1 µM
[15] = second compound 0.316 µM, first compound 0.316 µM
[16] = second compound 0.316 µM, first compound 1 µM
[17] = second compound 0.316 µM, first compound 3.16 µM
[18] = second compound 0.316 µM, first compound 10 µM
[19] = second compound 1 µM, first compound 0.0316 µM
[20] = second compound 1 µM, first compound 0.1 µM
[21] = second compound 1 µM, first compound 0.316 µM
[22] = second compound 1 µM, first compound 1 µM
[23] = second compound 1 µM, first compound 3.16 µM
[24] = second compound 1 µM, first compound 10 µM
[25] = second compound 3.16 µM, first compound 0.0316 µM
[26] = second compound 3.16 µM, first compound 0.1 µM
[27] = second compound 3.16 µM, first compound 0.316 µM
[28] = second compound 3.16 µM, first compound 1 µM
[29] = second compound 3.16 µM, first compound 3.16 µM
[30] = second compound 3.16 µM, first compound 10 µM
[31] = second compound 10 µM, first compound 0.0316 µM
[32] = second compound 10 µM, first compound 0.1 µM
[33] = second compound 10 µM, first compound 0.316 µM
[34] = second compound 10 µM, first compound 1 µM
[35] = second compound 10 µM, first compound 3.16 µM
[36] = second compound 10 µM, first compound 10 µM
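Also: spheroids exposed to compounds for one week.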
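For viability, T/C in this document: 100% = vehicle DMSO treated spheroids.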

For C#Cc1c(F)ccc2cc(O)cc(-c3ncc4c(N5CC6CCC(C5)N6)nc(OCC56CCCN5CC(F)C6)nc4c3F)c12 (stereo unspecified) + Cc1cccc(N(C)C(=O)C2C(O)CCN2c2nc(C)cc(C(F)(F)F)c2C#N)c1, the IC50 (second compound 0.0316 µM) was > 10 µM, the IC50 (second compound 0.1 µM) was > 10 µM and the IC50 (second compound 0.316 µM) was > 10 µM. For the same molecule, the IC50 (second compound 1 µM) was > 10 µM, the IC50 (second compound 3.16 µM) was > 10 µM and the IC50 (second compound 10 µM) was > 10 µM. It also gave a viability, T/C [1] of 110%, a viability, T/C [2] of 101% and a viability, T/C [3] of 108%. The viability, T/C [4] was 103%, the viability, T/C [5] was 101% and the viability, T/C [6] was 102%. It also gave a viability, T/C [7] of 111%, a viability, T/C [8] of 106% and a viability, T/C [9] of 105%. The viability, T/C [10] was 100%, the viability, T/C [11] was 106% and the viability, T/C [12] was 107%. It also gave a viability, T/C [13] of 118%, a viability, T/C [14] of 97.5% and a viability, T/C [15] of 100%. For the same molecule, the viability, T/C [16] was 100%, the viability, T/C [17] was 110% and the viability, T/C [18] was 104%. The viability, T/C [19] was 105%, the viability, T/C [20] was 97% and the viability, T/C [21] was 109%. For the same molecule, the viability, T/C [22] was 100%, the viability, T/C [23] was 107% and the viability, T/C [24] was 102%. For the same molecule, the viability, T/C [25] was 98.1%, the viability, T/C [26] was 102% and the viability, T/C [27] was 103%. For the same molecule, the viability, T/C [28] was 109%, the viability, T/C [29] was 101% and the viability, T/C [30] was 107%. For the same molecule, the viability, T/C [31] was 99.9%, the viability, T/C [32] was 104% and the viability, T/C [33] was 107%. The viability, T/C [34] was 99.2%, the viability, T/C [35] was 103% and the viability, T/C [36] was 98.8%.
With C=CC(=O)N1CCN(c2nc(=O)n(-c3c(C)ccnc3C(C)C)c3nc(-c4c(O)cccc4F)c(F)cc23)C(C)C1 (stereo unspecified) + Cc1cccc(N(C)C(=O)C2C(O)CCN2c2nc(C)cc(C(F)(F)F)c2C#N)c1 the IC50 (second compound 0.0316 µM) was > 10 µM, the IC50 (second compound 0.1 µM) was > 10 µM and the IC50 (second compound 0.316 µM) was > 10 µM. For the same molecule, the IC50 (second compound 1 µM) was > 10 µM, the IC50 (second compound 3.16 µM) was > 10 µM and the IC50 (second compound 10 µM) was > 10 µM. It also gave a viability, T/C [1] of 108%, a viability, T/C [2] of 99.5% and a viability, T/C [3] of 103%. For the same molecule, the viability, T/C [4] was 104%, the viability, T/C [5] was 110% and the viability, T/C [6] was 88%. It also gave a viability, T/C [7] of 105%, a viability, T/C [8] of 104% and a viability, T/C [9] of 101%. For the same molecule, the viability, T/C [10] was 107%, the viability, T/C [11] was 102% and the viability, T/C [12] was 93.4%. It also gave a viability, T/C [13] of 106%, a viability, T/C [14] of 105% and a viability, T/C [15] of 103%. It also gave a viability, T/C [16] of 103%, a viability, T/C [17] of 113% and a viability, T/C [18] of 92%. For the same molecule, the viability, T/C [19] was 109%, the viability, T/C [20] was 94.9% and the viability, T/C [21] was 107%. The viability, T/C [22] was 104%, the viability, T/C [23] was 108% and the viability, T/C [24] was 85.5%. It also gave a viability, T/C [25] of 101%, a viability, T/C [26] of 100% and a viability, T/C [27] of 105%. It also gave a viability, T/C [28] of 108%, a viability, T/C [29] of 108% and a viability, T/C [30] of 81.8%. For the same molecule, the viability, T/C [31] was 105%, the viability, T/C [32] was 100% and the viability, T/C [33] was 98.6%. For the same molecule, the viability, T/C [34] was 103%, the viability, T/C [35] was 81.1% and the viability, T/C [36] was 80.1%.
For CC(C)n1c(=O)n(C)c2cnc3cc(F)c(-c4ccc(OCCCN5CCCCC5)nc4)cc3c21 + Cc1cccc(N(C)C(=O)C2C(O)CCN2c2nc(C)cc(C(F)(F)F)c2C#N)c1, the IC50 (second compound 0.0316 µM) was > 10 µM, the IC50 (second compound 0.1 µM) was > 10 µM and the IC50 (second compound 0.316 µM) was > 10 µM. For the same molecule, the IC50 (second compound 1 µM) was > 10 µM, the IC50 (second compound 3.16 µM) was > 10 µM and the IC50 (second compound 10 µM) was > 10 µM. For the same molecule, the viability, T/C [1] was 104%, the viability, T/C [2] was 98.6% and the viability, T/C [3] was 104%. The viability, T/C [4] was 98.2%, the viability, T/C [5] was 99% and the viability, T/C [6] was 92.4%. It also gave a viability, T/C [7] of 104%, a viability, T/C [8] of 101% and a viability, T/C [9] of 99.4%. It also gave a viability, T/C [10] of 100%, a viability, T/C [11] of 98.7% and a viability, T/C [12] of 88.6%. The viability, T/C [13] was 101%, the viability, T/C [14] was 91.6% and the viability, T/C [15] was 102%. The viability, T/C [16] was 109%, the viability, T/C [17] was 106% and the viability, T/C [18] was 99.8%. The viability, T/C [19] was 110%, the viability, T/C [20] was 93.5% and the viability, T/C [21] was 99%. It also gave a viability, T/C [22] of 108%, a viability, T/C [23] of 104% and a viability, T/C [24] of 88.1%. It also gave a viability, T/C [25] of 98.7%, a viability, T/C [26] of 102% and a viability, T/C [27] of 109%. For the same molecule, the viability, T/C [28] was 106%, the viability, T/C [29] was 99.3% and the viability, T/C [30] was 92.4%. The viability, T/C [31] was 101%, the viability, T/C [32] was 98.8% and the viability, T/C [33] was 97.5%. The viability, T/C [34] was 95.8%, the viability, T/C [35] was 97.4% and the viability, T/C [36] was 92.5%.
